Reference: article PMC12655551, “Design, Synthesis, and Evaluation of Pyrrole-Based Selective MAO-B Inhibitors with Additional AChE Inhibitory and Neuroprotective Properties Identified via Virtual Screening” (Pharmaceuticals, 2025)

How the values were obtained:
[1] = biological target: T1, recombinant human MAO-A (hMAOA) (Homo sapiens, UniProt P21397); assay: MAO-A inhibition, fluorometric Amplex UltraRed assay; type: biochemical; conditions: for inhibition at 1 µM: 1 µM compound, read-out: Inhibition Activity 1 µM MAO-A; for IC50: means ± SD of three experiments, read-out: MAO-A IC50
T1 sequence (P21397 1-527): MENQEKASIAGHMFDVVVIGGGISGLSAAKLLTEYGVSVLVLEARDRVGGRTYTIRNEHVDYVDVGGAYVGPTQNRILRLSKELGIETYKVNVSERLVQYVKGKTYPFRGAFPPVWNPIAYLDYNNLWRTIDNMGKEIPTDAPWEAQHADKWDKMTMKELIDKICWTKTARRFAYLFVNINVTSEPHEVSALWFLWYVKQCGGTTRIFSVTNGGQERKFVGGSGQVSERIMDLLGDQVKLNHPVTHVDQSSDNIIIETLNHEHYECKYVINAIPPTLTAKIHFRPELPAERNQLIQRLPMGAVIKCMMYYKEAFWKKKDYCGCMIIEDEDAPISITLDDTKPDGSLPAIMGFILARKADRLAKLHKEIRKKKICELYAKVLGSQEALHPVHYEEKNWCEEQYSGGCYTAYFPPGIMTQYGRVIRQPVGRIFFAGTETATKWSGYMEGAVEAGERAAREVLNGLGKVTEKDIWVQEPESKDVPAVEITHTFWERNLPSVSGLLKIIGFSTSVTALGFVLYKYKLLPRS
Procedure: (§1) Monoamine oxidase (MAO) activity for both recombinant human MAO-A (hMAOA) and MAO-B (hMAOB) was assessed using a fluorometric assay based on the Amplex® UltraRed reagent. This method, originally reported by Bautista-Aguilera et al. and later adapted with minor changes by Kasabova-Angelova et al., detects hydrogen peroxide or peroxidase activity present in enzymes or biological samples. In this assay, Amplex® Red reacts in a 1:1 molar ratio with hydrogen peroxide in the presence of peroxidase, producing the red-fluorescent compound resorufin. Due to resorufin’s strong extinction coefficient (58,000 ± 5000 cm^−1·M^−1), measurements could be accurately taken using either fluorometric or spectrophotometric methods. […] The control conditions included the use of purified hMAOA or hMAOB in reaction buffer, enzyme solutions with hydrogen peroxide, and buffer alone. All the test compounds were initially prepared at a 1 µM final concentration. These compounds were combined with either hMAOA or hMAOB and loaded into a 96-well plate (with eight replicates per test compound), followed by incubation for 30 min at 37 °C in the dark. Subsequently, a 50 µL detection mix was added to each well. This mix contained Amplex® Red, horseradish peroxidase (HRP), and tyramine substrate, all prepared in a reaction buffer. As this enzymatic reaction proceeded continuously, the fluorescence signal was recorded every 30 min (at 0, 30, 60, 90, 120, and 150 min) to track enzymatic kinetics.

[2] = biological target: T2, recombinant human MAO-B (hMAOB) (Homo sapiens, UniProt P27338); assay: biochemical; type: biochemical; conditions: for inhibition at 1 µM: 1 µM compound; for IC50: means ± SD of three experiments
T2 sequence (P27338 1-520): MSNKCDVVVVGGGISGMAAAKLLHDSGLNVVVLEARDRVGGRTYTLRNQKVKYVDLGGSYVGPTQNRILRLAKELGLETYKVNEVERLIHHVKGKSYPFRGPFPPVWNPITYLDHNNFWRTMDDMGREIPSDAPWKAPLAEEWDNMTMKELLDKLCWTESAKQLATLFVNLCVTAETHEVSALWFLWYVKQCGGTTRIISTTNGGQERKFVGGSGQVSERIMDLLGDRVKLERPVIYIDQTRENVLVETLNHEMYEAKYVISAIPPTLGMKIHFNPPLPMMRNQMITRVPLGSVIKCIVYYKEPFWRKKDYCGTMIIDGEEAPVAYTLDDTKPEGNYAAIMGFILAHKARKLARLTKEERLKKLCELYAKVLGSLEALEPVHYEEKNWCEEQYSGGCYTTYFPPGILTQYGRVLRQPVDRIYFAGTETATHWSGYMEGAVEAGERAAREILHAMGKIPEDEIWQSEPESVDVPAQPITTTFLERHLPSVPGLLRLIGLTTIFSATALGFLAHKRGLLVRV
Procedure: as §1

BChE = biological target: T3, BChE (Equus caballus, UniProt P81908); assay: biochemical; conditions: for IC50: means ± SD of three experiments, read-out: BChE IC50; for inhibition at 200 µM: read-out: Inhibition Activity 200 µM BChE
T3 construct: purchased Sigma-Aldrich, Hamburg, Germany; host or cells: equine serum
T3 sequence (P81908 whole entry): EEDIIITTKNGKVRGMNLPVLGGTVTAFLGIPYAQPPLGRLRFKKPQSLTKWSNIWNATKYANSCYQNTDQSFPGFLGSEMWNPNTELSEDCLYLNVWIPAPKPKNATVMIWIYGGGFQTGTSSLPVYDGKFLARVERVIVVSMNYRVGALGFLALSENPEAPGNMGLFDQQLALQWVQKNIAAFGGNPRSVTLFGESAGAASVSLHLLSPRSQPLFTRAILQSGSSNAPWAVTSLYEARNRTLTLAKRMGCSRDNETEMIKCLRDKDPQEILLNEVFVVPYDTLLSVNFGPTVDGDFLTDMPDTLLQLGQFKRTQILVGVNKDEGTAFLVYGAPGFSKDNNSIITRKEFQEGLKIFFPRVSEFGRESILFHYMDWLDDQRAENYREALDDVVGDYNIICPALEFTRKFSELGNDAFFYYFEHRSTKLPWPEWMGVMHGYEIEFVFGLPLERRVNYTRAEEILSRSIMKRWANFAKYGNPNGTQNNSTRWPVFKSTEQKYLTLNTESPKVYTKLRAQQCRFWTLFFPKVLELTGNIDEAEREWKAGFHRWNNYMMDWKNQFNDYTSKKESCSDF
Procedure: (§2) AChE and BChE inhibitory activity of the newly synthesized pyrrole-based compounds was measured using the microplate assay described by Ellman et al. with the modifications added by López et al.. The compounds were tested at concentrations between 0.01 and 200 μM. First, they were dissolved in phosphate buffer (PBS) (8 mM K2HPO4, 2.3 mM NaH2PO4, 0.15 M NaCl, pH 7.5), assisted by the addition of no more than 5% MeOH. Then, they were serially diluted with PBS to provide the concentration range needed. Acetylcholinesterase from Electrophorus electricus and butyrylcholinesterase from equine serum (Sigma-Aldrich, Hamburg, Germany) were used with a substrate solution of 5,5′-dithiobis(2-nitrobenzoic acid) (DTNB) with acetylthiocholine iodide (ATCI) or butyrylthiocholine iodide (BTCI), respectively (0.04 M Na2HPO4, 0.2 mM DTNB, 0.24 mM ATCI or BTCI, pH 7.5). A total of 50 μL of AChE or BChE (0.25 U/mL, in PBS) and 50 μL of the tested compound solution were added to the wells. Incubation of the plates was performed at room temperature for 30 min. Then, 100 μL of substrate solution was added to start the enzymatic reaction. […] Enzyme activity was calculated as an inhibition percentage compared to an assay including buffer instead of an inhibitor.

AChE = biological target: T4, AChE (Electrophorus electricus, UniProt O42275); assay: biochemical; type: biochemical; conditions: for inhibition at 200 µM: 200 µM compound; for IC50: means ± SD of three experiments
T4 construct: purchased Sigma-Aldrich, Hamburg, Germany
T4 sequence (O42275 24-633): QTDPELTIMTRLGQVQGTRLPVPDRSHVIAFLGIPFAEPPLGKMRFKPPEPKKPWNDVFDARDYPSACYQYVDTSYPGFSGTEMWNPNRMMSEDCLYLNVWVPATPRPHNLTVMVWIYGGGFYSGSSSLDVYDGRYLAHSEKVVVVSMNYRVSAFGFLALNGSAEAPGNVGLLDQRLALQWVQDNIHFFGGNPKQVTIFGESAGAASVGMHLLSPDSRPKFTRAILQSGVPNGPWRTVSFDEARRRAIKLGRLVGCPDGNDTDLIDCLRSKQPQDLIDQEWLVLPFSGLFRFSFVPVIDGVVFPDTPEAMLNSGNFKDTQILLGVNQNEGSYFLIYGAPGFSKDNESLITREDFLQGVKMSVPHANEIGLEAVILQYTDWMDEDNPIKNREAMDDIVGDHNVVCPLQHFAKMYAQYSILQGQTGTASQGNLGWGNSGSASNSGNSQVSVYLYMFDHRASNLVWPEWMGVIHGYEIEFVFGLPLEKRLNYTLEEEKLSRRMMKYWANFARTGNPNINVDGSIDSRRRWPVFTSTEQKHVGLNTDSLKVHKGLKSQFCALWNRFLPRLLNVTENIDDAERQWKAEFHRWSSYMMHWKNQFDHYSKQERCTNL
Procedure: as §2

Compound	inhibition at 1 µM [1]	IC50 [1]	inhibition at 1 µM [2]	IC50 [2]	IC50 (BChE)	inhibition at 200 µM (BChE)	inhibition at 200 µM (AChE)	IC50 (AChE)
CCC(C)Cn1c(C)ccc1C (stereo not shown) [EM-DC-26, 2,5-dimethyl-1-(2-methylbutyl)-1H-pyrrole]	97 ± 7.1%	> 100 µM	97 ± 7.1%	> 100 µM	106.5 ± 0.7 µM	68.2 ± 1.6%	12.8 ± 3.54%	> 200 µM
Cc1ccc(C)n1-c1ccccc1Br [EM-DC-3, 1-(2-bromophenyl)-2,5-dimethyl-1H-pyrrole]	70 ± 7.2%	0.52 ± 0.1 µM	75 ± 7.1%	0.56 ± 0.1 µM	> 200 µM	0.04 ± 9.01%	8.32 ± 2.64%	> 200 µM
Cc1ccc(C)n1CC(C)c1ccc(O)cc1 (stereo not shown) [EM-DC-11, 4-[1-(2,5-dimethyl-1H-pyrrol-1-yl)propan-2-yl]phenol]	97 ± 6.9%	> 100 µM	97 ± 7.1%	> 100 µM	> 200 µM	30.6 ± 2.11%	29 ± 2.47%	> 200 µM
Cc1ccc(C)n1C(Cc1ccc(O)cc1)C(=O)O (stereo not shown) [EM-DC-20, 2-(2,5-dimethyl-1H-pyrrol-1-yl)-3-(4-hydroxyphenyl)propanoic acid]	75 ± 6.4%	0.6 ± 0.1 µM	75 ± 7.1%	0.62 ± 0.1 µM	> 200 µM	0%	0%	> 200 µM
Cc1ccc(C)n1-c1ccc(Br)cc1 [EM-DC-4, 1-(4-bromophenyl)-2,5-dimethyl-1H-pyrrole]	60 ± 6.8%	0.32 ± 0.1 µM	98 ± 7.1%	> 100 µM	> 200 µM	0%	1.4 ± 0.38%	> 200 µM
Cc1ccc(C)n1-c1ccc2c(c1)OCO2 [EM-DC-6, 1-(2H-1,3-benzodioxol-5-yl)-2,5-dimethyl-1H-pyrrole]	97 ± 7.1%	> 100 µM	98 ± 7.1%	> 100 µM	> 200 µM	36.3 ± 3.54%	65 ± 1.14%	128 ± 1.87 µM
Cc1ccc(C)n1CCc1ccc(O)cc1 [EM-DC-9, 4-[2-(2,5-dimethyl-1H-pyrrol-1-yl)ethyl]phenol]	98 ± 6.8%	> 100 µM	98 ± 7.1%	> 100 µM	69.5 ± 7.52 µM	73.7 ± 4.5%	72.9 ± 3.02%	76.8 ± 4.68 µM
COc1cc2c(cc1OC)C(=O)C(CC1CCN(Cc3ccccc3)CC1)C2 (stereo not shown) [Donepezil, reference compound]	–	–	–	–	–	92.25 ± 0.22%	–	–
Cc1ccc(C)n1-c1ccc(C(=O)O)cc1O [EM-DC-17, 4-(2,5-dimethyl-1H-pyrrol-1-yl)-3-hydroxybenzoic acid]	99 ± 6.6%	> 100 µM	99 ± 7.1%	> 100 µM	> 200 µM	3.85 ± 2.99%	0%	> 200 µM
Cc1ccc(C)n1C(CO)C(=O)O (stereo not shown) [EM-DC-22, 2-(2,5-dimethyl-1H-pyrrol-1-yl)-3-hydroxypropanoic acid]	99 ± 7.2%	> 100 µM	99 ± 7.1%	> 100 µM	> 200 µM	0%	0%	> 200 µM
Cc1cc(-n2c(C)ccc2C)c2ccccc2n1 [EM-DC-13, 4-(2,5-dimethyl-1H-pyrrol-1-yl)-2-methylquinoline]	80 ± 7.1%	0.38 ± 0.1 µM	80 ± 7.1%	0.41 ± 0.1 µM	10.5 ± 0.17 µM	83.81 ± 0.67%	91.2 ± 1.22%	3.81 ± 0.26 µM
Cc1ccc(C)n1CCc1ccc(Cl)cc1 [EM-DC-8, 1-[2-(4-chlorophenyl)ethyl]-2,5-dimethyl-1H-pyrrole]	99 ± 7.3%	> 100 µM	99 ± 7.1%	> 100 µM	> 200 µM	35.4 ± 2.91%	31.1 ± 2.48%	> 200 µM
Cc1ccc(C)n1CC(O)c1ccc(O)cc1 (stereo not shown) [EM-DC-10, 4-[2-(2,5-dimethyl-1H-pyrrol-1-yl)-1-hydroxyethyl]phenol]	99 ± 6.8%	> 100 µM	99 ± 7.1%	> 100 µM	11.3 ± 0.87 µM	87.2 ± 1.6%	60.4 ± 1.05%	148 ± 5.91 µM
Cc1ccc(C)n1-c1ccc(O)c(C(=O)O)c1 [EM-DC-18, 5-(2,5-dimethyl-1H-pyrrol-1-yl)-2-hydroxybenzoic acid]	98 ± 6.5%	> 100 µM	98 ± 7.1%	> 100 µM	> 200 µM	0%	16 ± 1.4%	> 200 µM
Cc1ccc(C)n1-c1ccc(C(=O)NCC(=O)O)cc1 [EM-DC-24, [4-(2,5-dimethyl-1H-pyrrol-1-yl)benzamido]acetic acid]	80 ± 7.1%	0.58 ± 0.1 µM	80 ± 7.1%	0.59 ± 0.1 µM	> 200 µM	0%	24.1 ± 4.1%	> 200 µM
Cc1ccc(C)n1C(Cc1ccc(O)c(O)c1)C(=O)O (stereo not shown) [EM-DC-23, 3-(3,4-dihydroxyphenyl)-2-(2,5-dimethyl-1H-pyrrol-1-yl)propanoicacid]	98 ± 7.3%	> 100 µM	98 ± 7.1%	> 100 µM	> 200 µM	0%	21.8 ± 2.14%	> 200 µM
Cc1ccc(C)n1CCN1CCOCC1 [EM-DC-16, 4-[2-(2,5-dimethyl-1H-pyrrol-1-yl)ethyl]morpholine]	80 ± 7.3%	0.46 ± 0.1 µM	80 ± 7.1%	0.47 ± 0.1 µM	> 200 µM	48.8 ± 1.5%	85.3 ± 2.43%	11.8 ± 1.1 µM
COc1ccc2c3c1O[C@H]1C[C@@H](O)C=C[C@@]31CCN(C)C2 [Galanthamine, reference compound]	–	–	–	–	–	89.16 ± 0.44%	–	–
